Reference: patent publication US11332472B2, “Substituted piperidines as inhibitors of ubiquitin specific protease 7” (LES LABORATOIRES SERVIER, priority 2017, dated 2022)

The compounds below were run against T1, USP7 (Homo sapiens, UniProt Q93009, C315A) (assay: Inhibition of USP7 by Fluorescence Intensity (FLINT) readings, Ubiquitin-Rhodamine-110 substrate). Details: 0.25 nM His-His-USP7 (aa208-560, [C315A]); compound 60 minutes at 30° C.; 500 nM Ubiquitin-Rhodamine substrate; 11-point curves.
T1 construct: 0.25 nM His-His-USP7 (aa208-560, [C315A]) was incubated with compound; His-His (N)
T1 sequence (Q93009 208-560 C315A): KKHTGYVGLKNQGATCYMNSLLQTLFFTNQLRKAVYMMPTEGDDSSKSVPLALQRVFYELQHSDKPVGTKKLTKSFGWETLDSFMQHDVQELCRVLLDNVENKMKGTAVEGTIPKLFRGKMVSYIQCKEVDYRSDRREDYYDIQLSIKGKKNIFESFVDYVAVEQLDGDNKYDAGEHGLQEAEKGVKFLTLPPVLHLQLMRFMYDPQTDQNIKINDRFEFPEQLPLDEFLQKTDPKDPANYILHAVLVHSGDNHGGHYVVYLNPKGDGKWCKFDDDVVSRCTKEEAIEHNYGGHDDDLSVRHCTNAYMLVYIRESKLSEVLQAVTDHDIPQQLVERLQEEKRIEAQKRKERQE
Type: biochemical
Experimental: USP7 activity was measured using Rhodamine-110 c-terminal labelled Ubiquitin as a substrate (Viva Biosciences). Incubation with USP7 results in the release of Rhodamine-110 leading to an increase in fluorescence which can be used in the continuous measurement of USP7 activity.
The USP7 reactions were performed in a 50 μL volume, in 384 well black solid low binding plates (Corning #3575). The reaction buffer consisted of 100 mM Bicine pH 8.0, 0.01% TritonX 100, 1 mM TCEP, and 10% DMSO.
0.25 nM His-His-USP7 (aa208-560, [C315A]) was incubated with compound (final concentration 10% DMSO) for 60 minutes at 30° C. The reaction was then initiated by the addition of 500 nM Ubiquitin-Rhodamine-10 substrate and the plate read every 3 minutes for 21 minutes to measure the release of Rhodamine-110. Fluorescence Intensity (FLINT) readings were measured using a Biomek Neo plate reader (Ex. 485 nm. Em. 535 nm).
The inhibition of increasing doses of compound was expressed as a percentage reduction in kinetic rate compared to the kinetic rates established between ‘DMSO only’ and ‘total inhibition’ controls (no USP7). The inhibitory concentrations that gave a 50% reduction in kinetic rate (IC50) were determined, from 11-point dose response curves, in XL-Fit using a 4-Parameter Logistic Model (Sigmoidal Dose-Response Model).

| SMILES | IC50 |
| --- | --- |
| O=C([C@@H]1CCCC[C@H]1c1ccsc1)N1CCC(O)(Cn2cnc3cccnc3c2=O)CC1 (relative stereo) [Example 1, 3-[[4-hydroxy-1-[trans-2-(3-thienyl)cyclohexanecarbonyl]-4-piperidyl]methyl]pyrido[3,2-d]pyrimidin-4-one] | 916 nM |
| Cn1ccc2c(=O)n(CC3(O)CCN(C(=O)[C@@H]4CCCC[C@H]4c4ccsc4)CC3)cnc21 (relative stereo) [Example 2, 3-[[4-hydroxy-1-[trans-2-(3-thienyl)cyclohexanecarbonyl]-4-piperidyl]methyl]-7-methyl-pyrrolo[2,3-d]pyrimidin-4-one] | 439 nM |
| Cn1ccc2c(=O)n(CC3(O)CCN(C(=O)[C@@H]4CCCC[C@H]4c4ccoc4)CC3)cnc21 (relative stereo) [Example 3, 3-[[1-[trans-2-(3-furyl)cyclohexanecarbonyl]-4-hydroxy-4-piperidyl]methyl]-7-methyl-pyrrolo[2,3-d]pyrimidin-4-one] | 530 nM |
| O=C([C@@H]1CCCC[C@H]1c1ccoc1)N1CCC(O)(Cn2cnc3cccnc3c2=O)CC1 (relative stereo) [Example 4, 3-[[1-[trans-2-(3-furyl)cyclohexanecarbonyl]-4-hydroxy-4-piperidyl]methyl]pyrido[3,2-d]pyrimidin-4-one] | 4580 nM |
| O=C([C@@H]1CCO[C@H]1c1ccccc1)N1CCC(O)(Cn2cnc3c(ccn3-c3ccccc3)c2=O)CC1 (relative stereo) [Example 46, 3-[[4-hydroxy-1-[trans-2-phenyltetrahydrofuran-3-carbonyl]-4-piperidyl]methyl]-7-phenyl-pyrrolo[2,3-d]pyrimidin-4-one] | 685 nM |
| O=C([C@@H]1CCCC(F)(F)[C@H]1c1ccccc1)N1CCC(O)(Cn2cnc3c(ccn3-c3ccccc3)c2=O)CC1 (relative stereo) [Example 51, 3-[[1-[trans-3,3-difluo-2-phenyl-cyclohexanecarbonyl]-4-hydroxy-4-piperidyl]methyl]-7-phenyl-pyrrolo[2,3-d]pyrimidin-4-one] | 10100 nM |
| O=C([C@@H]1CCC(F)(F)C[C@H]1c1cccs1)N1CCC(O)(Cn2cnc3c(ccn3-c3ccccc3)c2=O)CC1 (relative stereo) [Example 71, 3-[[1-[trans-4,4-difluoro-2-(2-thienyl)cyclohexanecarbonyl]-4-hydroxy-4-piperidyl]methyl]-7-phenyl-pyrrolo[2,3-d]pyrimidin-4-one] | 162 nM |
| COc1ccc(-n2ccc3c(=O)n(CC4(O)CCN(C(=O)[C@@H]5CCC(F)(F)C[C@H]5c5ccoc5)CC4)cnc32)cc1 (relative stereo) [Example 74, 3-[[1-[trans-4,4-difluoro-2-(3-fury)cyclohexanecarbonyl]-4-hydroxy-4-piperidyl]methyl]-7-(4-methoxyphenyl)pyrrolo[2,3-d]pyrimidin-4-one] | 2900 nM |
| O=C([C@@H]1CCC(F)(F)C[C@H]1c1cnco1)N1CCC(O)(Cn2cnc3c(Cl)scc3c2=O)CC1 (relative stereo) [Example 76, 7-chloro-3-[[1-[trans-4,4-difluoro-2-oxazol-5-yl-cyclohexanecarbonyl]-4-hydroxy-4-piperidyl]methyl]thieno[3,4-d]pyrimidin-4-one] | 6640 nM |
| O=C([C@@H]1CCC(F)(F)C[C@H]1c1cocn1)N1CCC(O)(Cn2cnc3c(-c4ccc(CO)cc4)scc3c2=O)CC1 (relative stereo) [Example 77, 3-[[1-[trans-4,4-difluoro-2-oxazol-4-yl-cyclohexanecarbonyl]-4-hydroxy-4-piperidyl]methyl]-7-[4-(hydroxymethyl)phenyl]thieno[3,4-d]pyrimidin-4-one] | 591 nM |
| O=C([C@@H]1CCC(F)(F)C[C@H]1c1ccncc1)N1CCC(O)(Cn2cnc3c(-c4ccccc4)scc3c2=O)CC1 (relative stereo) [Example 84, 3-[[1-[trans-4,4-difluoro-2-(4-pyridyl)cyclohexanecarbonyl]-4-hydroxy-4-piperidyl]methyl]-7-phenyl-thieno[3,4-d]pyrimidin-4-one] | 611 nM |
| Cc1cc([C@@H]2CC(F)(F)CC[C@H]2C(=O)N2CCC(O)(Cn3cnc4c(-c5ccccc5)scc4c3=O)CC2)cs1 (relative stereo) [Example 90, 3-[[1-[trans-4,4-difluoro-2-(S-methyl-3-thienyl)cyclohexanecarbonyl]-4-hydroxy-4-piperidyl]methyl]-7-phenyl-thieno[3,4-d]pyrimidin-4-one] | 2920 nM |
| O=C([C@@H]1CCCC[C@H]1c1ccccc1)N1CCC(O)(Cn2cnc3sccc3c2=O)CC1 (relative stereo) [Example 91, 3-[[4-hydroxy-1-(trans-2-phenylcyclohexanecarbonyl)-4-piperidyl]methyl]thieno[2,3-d]pyrimidin-4-one] | 137 nM |
| O=C([C@@H]1CCCC[C@H]1c1ccccc1)N1CCC(O)(Cn2cnc3cccnc3c2=O)CC1 (relative stereo) [Example 93, 3-[[4-hydroxy-1-(trans-2-phenylcyclohexanecarbonyl)-4-piperidyl]methyl]pyrido[3,2-d]pyrimidin-4-one] | 171 nM |
| COc1ccc(CNc2ccc3ncn(CC4(O)CCN(C(=O)[C@@H]5CCCC[C@H]5c5ccccc5)CC4)c(=O)c3n2)cc1 (relative stereo) [Example 94, 3-[[4-hydroxy-1-(trans-2-phenylcyclohexanecarbonyl)-4-piperidyl]methyl]-6-[(4-methoxyphenyl)methylamino]pyrido[3,2-d]pyrimidin-4-one] | 351 nM |
| Nc1ccc2ncn(CC3(O)CCN(C(=O)[C@@H]4CCCC[C@H]4c4ccccc4)CC3)c(=O)c2n1 (relative stereo) [Example 100, 6-amino-3-[[4-hydroxy-1-(trans-2-phenylcyclohexanecarbonyl)-4-piperidyl]methyl]pyrido[3,2-d]pyrimidin-4-one] | 226 nM |
| O=C(Nc1ccc2ncn(CC3(O)CCN(C(=O)[C@@H]4CCCC[C@H]4c4ccccc4)CC3)c(=O)c2n1)C1CCOC1 (relative stereo) [Example 101, N-[3-[[4-hydroxy-1-(trans-2-phenylcyclohexanecarbonyl)-4-piperidyl]methyl]-4-oxo-pyrido[3,2-d]pyrimidin-6-yl]tetrahydrofuran-3-carboxamide] | 99.6 nM |
| O=C(Nc1ccc2ncn(CC3(O)CCN(C(=O)[C@@H]4CCCC[C@H]4c4ccccc4)CC3)c(=O)c2n1)C1CCCC1O (relative stereo) [Example 103, 2-hydroxy-N-[3-[[4-hydroxy-1-(trans-2-phenylcyclohexanecarbonyl)-4-piperidyl]methyl]4-oxo-pyrido[3,2-d]pyrimidin-6-yl]cyclopentanecarboxamide] | 125 nM |
| O=C(Cc1cccc(O)c1)Nc1ccc2ncn(CC3(O)CCN(C(=O)[C@@H]4CCCC[C@H]4c4ccccc4)CC3)c(=O)c2n1 (relative stereo) [Example 104, 2-(3-hydroxyphenyl)-N-[3-[[4-hydroxy-1-(trans-2-phenylcyclohexanecarbonyl)-4-piperidyl]methyl]-4-oxo-pyrido[3,2-d]pyrimidin-6-yl]acetamide] | 21.7 nM |
| O=C(CC1CCCO1)Nc1ccc2ncn(CC3(O)CCN(C(=O)[C@@H]4CCCC[C@H]4c4ccccc4)CC3)c(=O)c2n1 (relative stereo) [Example 106, N-[3-[[4-hydroxy-1-(trans-2-phenylcyclohexanecarbonyl)-4-piperidyl]methyl]-4-oxo-pyrido[3,2-d]pyrimidin-6-yl]-2-tetrahydrofuran-2-yl-acetamide] | 100 nM |
| COc1ccc(C(=O)Nc2ccc3ncn(CC4(O)CCN(C(=O)[C@@H]5CCCC[C@H]5c5ccccc5)CC4)c(=O)c3n2)cc1 (relative stereo) [Example 107, N-[3-[[4-hydroxy-1-(trans-2-phenylcyclohexanecarbonyl)-4-piperidyl]methyl]-4-oxo-pyrido[3,2-d]pyrimidin-6-yl]-4-methoxy-benzamide] | 102 nM |
| NC(=O)CSCCC(=O)Nc1ccc2ncn(CC3(O)CCN(C(=O)[C@@H]4CCCC[C@H]4c4ccccc4)CC3)c(=O)c2n1 (relative stereo) [Example 108, 3-(2-amino-2-oxo-ethyl)sulfanyl-N-[3-[[4-hydroxy-1-(trans-2-phenylcyclohexanecarbonyl)-4-piperidyl]methyl]-4-oxo-pyrido[3,2-d]pyrimidin-6-yl]propanamide] | 76.5 nM |
| O=C([C@@H]1CCCC[C@H]1c1ccccc1)N1CCC(O)(Cn2cnc3c(ccn3Cc3cccnc3)c2=O)CC1 (relative stereo) [Example 109, 3-[[4-hydroxy-1-(trans-2-phenylcyclohexanecarbonyl)-4-piperidyl]methyl]-7-(3-pyridylmethyl)pyrrolo[2,3-d]pyrimidin-4-one] | 1010 nM |
| O=C([C@@H]1CCCC[C@H]1c1ccccc1)N1CCC(O)(Cn2cnc3c(ccn3Cc3ccsc3)c2=O)CC1 (relative stereo) [Example 110, 3-[[4-hydroxy-1-(trans-2-phenylcyclohexanecarbonyl)-4-piperidyl]methyl]-7-(3-thienylmethyl)pyrrolo[2,3-d]pyrimidin-4-one] | 450 nM |
